ChEMBL document CHEMBL5723582, “Data for DCP probe T-10430” (2024)

What was measured:
Conditions in all cases: Compound concentration 1.0 uM
[1] = molecular target: G-protein coupled receptor 55 (Homo sapiens) (UniProt Q9Y2T6); assay: RLU of GPR55 at 1.0 µM in the […] PRESTO-Tango GPCRome screen
[2] = molecular target: 5-hydroxytryptamine receptor 2A (Homo sapiens) (UniProt P28223); assay: RLU of HTR2A at 1.0 µM in the […] PRESTO-Tango GPCRome screen
[3] = molecular target: G-protein coupled receptor 87 (Homo sapiens) (UniProt Q9BY21); assay: RLU of GPR87 at 1.0 µM in the […] PRESTO-Tango GPCRome screen
[4] = molecular target: D(3) dopamine receptor (Homo sapiens) (UniProt P35462); assay: RLU of DRD3 at 1.0 µM in the […] PRESTO-Tango GPCRome screen
[5] = molecular target: Lysophosphatidic acid receptor 4 (Homo sapiens) (UniProt Q99677); assay: RLU of LPAR4 at 1.0 µM in the […] PRESTO-Tango GPCRome screen
[6] = molecular target: Mas-related G-protein coupled receptor member X1 (Homo sapiens) (UniProt Q96LB2); assay: RLU of MRGPRX1 at 1.0 µM in the […] PRESTO-Tango GPCRome screen
[7] = molecular target: Somatostatin receptor type 4 (Homo sapiens) (UniProt P31391); assay: RLU of SSTR4 at 1.0 µM in the […] PRESTO-Tango GPCRome screen
[8] = molecular target: Neuropeptide FF receptor 1 (Homo sapiens) (UniProt Q9GZQ6); assay: RLU of NPFF1 at 1.0 µM in the […] PRESTO-Tango GPCRome screen
[9] = molecular target: G-protein coupled receptor 135 (Homo sapiens) (UniProt Q8IZ08); assay: RLU of GPR135 at 1.0 µM in the […] PRESTO-Tango GPCRome screen
[10] = molecular target: Muscarinic acetylcholine receptor M5 (Homo sapiens) (UniProt P08912); assay: RLU of CHRM5 at 1.0 µM in the […] PRESTO-Tango GPCRome screen
[11] = molecular target: G-protein coupled receptor 35 (Homo sapiens) (UniProt Q9HC97); assay: RLU of GPR35 at 1.0 µM in the […] PRESTO-Tango GPCRome screen
[12] = molecular target: Probable G-protein coupled receptor 160 (Homo sapiens) (UniProt Q9UJ42); assay: RLU of GPR160 at 1.0 µM in the […] PRESTO-Tango GPCRome screen
[13] = molecular target: G-protein coupled receptor 37-like 1 (Homo sapiens) (UniProt O60883); assay: RLU of GPR37L1 at 1.0 µM in the […] PRESTO-Tango GPCRome screen
[14] = molecular target: Oxoeicosanoid receptor 1 (Homo sapiens) (UniProt Q8TDS5); assay: RLU of OXER1 at 1.0 µM in the […] PRESTO-Tango GPCRome screen
[15] = molecular target: Parathyroid hormone 2 receptor (Homo sapiens) (UniProt P49190); assay: RLU of PTH2R at 1.0 µM in the […] PRESTO-Tango GPCRome screen
[16] = molecular target: G-protein coupled receptor 52 (Homo sapiens) (UniProt Q9Y2T5); assay: RLU of GPR52 at 1.0 µM in the […] PRESTO-Tango GPCRome screen
[17] = molecular target: Melanocortin receptor 3 (Homo sapiens) (UniProt P41968); assay: RLU of MC3R at 1.0 µM in the […] PRESTO-Tango GPCRome screen
[18] = molecular target: Neuropeptide S receptor (Homo sapiens) (UniProt Q6W5P4); assay: RLU of NPS at 1.0 µM in the […] PRESTO-Tango GPCRome screen
[19] = molecular target: Relaxin receptor 1 (Homo sapiens) (UniProt Q9HBX9); assay: RLU of RXFP1 at 1.0 µM in the […] PRESTO-Tango GPCRome screen
[20] = molecular target: Vasopressin V2 receptor (Homo sapiens) (UniProt P30518); assay: RLU of AVPR2 at 1.0 µM in the […] PRESTO-Tango GPCRome screen
Opsin-5 (Homo sapiens) = Opsin-5 (Homo sapiens) (UniProt Q6U736); assay: RLU of OPN5 at 1.0 µM in the […] PRESTO-Tango GPCRome screen
[21] = molecular target: Calcitonin receptor (Homo sapiens) (UniProt P30988); assay: RLU of CALCRb at 1.0 µM in the […] PRESTO-Tango GPCRome screen
[22] = molecular target: Adhesion G-protein coupled receptor G6 (Homo sapiens) (UniProt Q86SQ4); assay: RLU of GPR126 at 1.0 µM in the […] PRESTO-Tango GPCRome screen
[23] = molecular target: Probable G-protein coupled receptor 27 (Homo sapiens) (UniProt Q9NS67); assay: RLU of GPR27 at 1.0 µM in the […] PRESTO-Tango GPCRome screen
[24] = molecular target: 5-hydroxytryptamine receptor 1E (Homo sapiens) (UniProt P28566); assay: RLU of HTR1E at 1.0 µM in the […] PRESTO-Tango GPCRome screen
[25] = molecular target: Muscarinic acetylcholine receptor M3 (Homo sapiens) (UniProt P20309); assay: RLU of CHRM3 at 1.0 µM in the […] PRESTO-Tango GPCRome screen
[26] = molecular target: Probable G-protein coupled receptor 21 (Homo sapiens) (UniProt Q99679); assay: RLU of GPR21 at 1.0 µM in the […] PRESTO-Tango GPCRome screen
[27] = molecular target: Adhesion G protein-coupled receptor A1 (Homo sapiens) (UniProt Q86SQ6); assay: RLU of GPR123 at 1.0 µM in the […] PRESTO-Tango GPCRome screen
[28] = molecular target: G-protein coupled receptor 171 (Homo sapiens) (UniProt O14626); assay: RLU of GPR171 at 1.0 µM in the […] PRESTO-Tango GPCRome screen
[29] = molecular target: Alpha-2A adrenergic receptor (Homo sapiens) (UniProt P08913); assay: RLU of ADRA2A at 1.0 µM in the […] PRESTO-Tango GPCRome screen
[30] = molecular target: Muscarinic acetylcholine receptor M4 (Homo sapiens) (UniProt P08173); assay: RLU of CHRM4 at 1.0 µM in the […] PRESTO-Tango GPCRome screen
[31] = molecular target: Follicle-stimulating hormone receptor (Homo sapiens) (UniProt P23945); assay: RLU of FSHR at 1.0 µM in the […] PRESTO-Tango GPCRome screen
[32] = molecular target: G-protein coupled receptor 15 (Homo sapiens) (UniProt P49685); assay: RLU of GPR15 at 1.0 µM in the […] PRESTO-Tango GPCRome screen
[33] = molecular target: Melanocyte-stimulating hormone receptor (Homo sapiens) (UniProt Q01726); assay: RLU of MC1R at 1.0 µM in the […] PRESTO-Tango GPCRome screen
[34] = molecular target: Mas-related G-protein coupled receptor member F (Homo sapiens) (UniProt Q96AM1); assay: RLU of MRGPRF at 1.0 µM in the […] PRESTO-Tango GPCRome screen

Chain of Alpha-2A adrenergic receptor (Homo sapiens) (P08913 whole entry): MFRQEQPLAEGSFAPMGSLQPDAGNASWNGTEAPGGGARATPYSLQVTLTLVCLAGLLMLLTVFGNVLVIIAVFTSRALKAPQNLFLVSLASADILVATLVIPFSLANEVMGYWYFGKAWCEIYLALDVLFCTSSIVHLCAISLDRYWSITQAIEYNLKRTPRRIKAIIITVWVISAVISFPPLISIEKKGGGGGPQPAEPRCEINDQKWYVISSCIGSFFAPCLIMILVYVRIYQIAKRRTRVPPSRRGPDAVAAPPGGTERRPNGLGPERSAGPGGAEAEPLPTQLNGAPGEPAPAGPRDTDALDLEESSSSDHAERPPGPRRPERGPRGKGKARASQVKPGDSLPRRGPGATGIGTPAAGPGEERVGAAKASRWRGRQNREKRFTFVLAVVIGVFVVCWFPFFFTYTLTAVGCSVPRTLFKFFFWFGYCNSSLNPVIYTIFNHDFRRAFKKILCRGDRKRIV
Chain of Probable G-protein coupled receptor 21 (Homo sapiens) (Q99679 whole entry): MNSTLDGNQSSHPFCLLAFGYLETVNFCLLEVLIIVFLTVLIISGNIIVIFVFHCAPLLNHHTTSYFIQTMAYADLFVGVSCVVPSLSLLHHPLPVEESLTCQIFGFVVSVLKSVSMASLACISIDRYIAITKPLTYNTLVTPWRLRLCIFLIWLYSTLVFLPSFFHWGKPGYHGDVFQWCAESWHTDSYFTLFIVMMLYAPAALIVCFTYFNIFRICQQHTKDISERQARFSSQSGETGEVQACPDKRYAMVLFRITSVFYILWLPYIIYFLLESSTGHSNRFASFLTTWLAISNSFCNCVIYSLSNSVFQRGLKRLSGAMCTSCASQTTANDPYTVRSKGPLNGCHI
Chain of Follicle-stimulating hormone receptor (Homo sapiens) (P23945 whole entry): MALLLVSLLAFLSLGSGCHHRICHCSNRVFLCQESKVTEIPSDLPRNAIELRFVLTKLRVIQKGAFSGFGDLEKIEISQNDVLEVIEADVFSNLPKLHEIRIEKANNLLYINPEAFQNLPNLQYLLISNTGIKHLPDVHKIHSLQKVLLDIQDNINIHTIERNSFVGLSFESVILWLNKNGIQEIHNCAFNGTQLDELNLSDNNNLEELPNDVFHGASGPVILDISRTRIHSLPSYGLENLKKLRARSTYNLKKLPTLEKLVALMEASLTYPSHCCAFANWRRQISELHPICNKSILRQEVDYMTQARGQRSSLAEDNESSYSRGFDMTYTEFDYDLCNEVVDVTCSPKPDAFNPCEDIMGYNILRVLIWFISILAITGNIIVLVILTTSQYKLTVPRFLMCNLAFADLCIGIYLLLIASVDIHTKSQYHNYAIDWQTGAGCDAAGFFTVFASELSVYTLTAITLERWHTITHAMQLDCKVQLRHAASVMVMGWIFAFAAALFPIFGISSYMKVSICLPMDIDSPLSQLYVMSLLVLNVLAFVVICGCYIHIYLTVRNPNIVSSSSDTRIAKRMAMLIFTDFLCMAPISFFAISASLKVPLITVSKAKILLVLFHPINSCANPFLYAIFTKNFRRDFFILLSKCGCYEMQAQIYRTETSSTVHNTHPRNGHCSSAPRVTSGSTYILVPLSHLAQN
Chain of Muscarinic acetylcholine receptor M4 (Homo sapiens) (P08173 whole entry): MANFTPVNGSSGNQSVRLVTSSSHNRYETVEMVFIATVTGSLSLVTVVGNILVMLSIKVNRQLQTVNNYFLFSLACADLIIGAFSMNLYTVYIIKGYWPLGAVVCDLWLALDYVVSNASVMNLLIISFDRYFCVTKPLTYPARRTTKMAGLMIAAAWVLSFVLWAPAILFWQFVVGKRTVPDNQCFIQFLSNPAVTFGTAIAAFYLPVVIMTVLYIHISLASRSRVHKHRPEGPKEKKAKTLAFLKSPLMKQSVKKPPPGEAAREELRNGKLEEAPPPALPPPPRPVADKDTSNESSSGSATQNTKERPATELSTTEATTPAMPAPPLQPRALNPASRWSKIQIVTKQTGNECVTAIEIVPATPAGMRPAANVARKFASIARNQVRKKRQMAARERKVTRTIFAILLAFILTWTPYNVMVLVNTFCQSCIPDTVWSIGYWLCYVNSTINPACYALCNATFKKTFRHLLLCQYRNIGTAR
Chain of 5-hydroxytryptamine receptor 2A (Homo sapiens) (P28223 whole entry): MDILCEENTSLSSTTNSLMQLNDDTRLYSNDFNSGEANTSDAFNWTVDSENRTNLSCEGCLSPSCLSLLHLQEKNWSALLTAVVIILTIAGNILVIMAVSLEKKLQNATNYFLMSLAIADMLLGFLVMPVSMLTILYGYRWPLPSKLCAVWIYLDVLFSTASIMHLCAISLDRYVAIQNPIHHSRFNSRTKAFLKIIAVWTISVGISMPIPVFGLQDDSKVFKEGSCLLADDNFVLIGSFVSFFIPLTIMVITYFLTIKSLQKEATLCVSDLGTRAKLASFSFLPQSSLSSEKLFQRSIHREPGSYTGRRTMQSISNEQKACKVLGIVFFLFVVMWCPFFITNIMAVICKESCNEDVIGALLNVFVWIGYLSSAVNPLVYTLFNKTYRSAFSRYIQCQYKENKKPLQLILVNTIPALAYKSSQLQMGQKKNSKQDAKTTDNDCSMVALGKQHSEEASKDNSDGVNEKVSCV
Chain of Neuropeptide S receptor (Homo sapiens) (Q6W5P4 whole entry): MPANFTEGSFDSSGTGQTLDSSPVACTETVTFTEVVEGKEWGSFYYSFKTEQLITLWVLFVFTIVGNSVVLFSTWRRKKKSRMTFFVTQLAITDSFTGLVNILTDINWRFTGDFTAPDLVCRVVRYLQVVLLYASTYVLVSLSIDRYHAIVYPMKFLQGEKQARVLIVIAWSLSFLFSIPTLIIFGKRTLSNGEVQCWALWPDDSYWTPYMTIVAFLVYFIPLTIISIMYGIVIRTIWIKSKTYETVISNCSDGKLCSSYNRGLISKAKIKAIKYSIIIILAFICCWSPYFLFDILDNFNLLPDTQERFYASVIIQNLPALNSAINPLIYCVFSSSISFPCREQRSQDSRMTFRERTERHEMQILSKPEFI
Chain of Somatostatin receptor type 4 (Homo sapiens) (P31391 whole entry): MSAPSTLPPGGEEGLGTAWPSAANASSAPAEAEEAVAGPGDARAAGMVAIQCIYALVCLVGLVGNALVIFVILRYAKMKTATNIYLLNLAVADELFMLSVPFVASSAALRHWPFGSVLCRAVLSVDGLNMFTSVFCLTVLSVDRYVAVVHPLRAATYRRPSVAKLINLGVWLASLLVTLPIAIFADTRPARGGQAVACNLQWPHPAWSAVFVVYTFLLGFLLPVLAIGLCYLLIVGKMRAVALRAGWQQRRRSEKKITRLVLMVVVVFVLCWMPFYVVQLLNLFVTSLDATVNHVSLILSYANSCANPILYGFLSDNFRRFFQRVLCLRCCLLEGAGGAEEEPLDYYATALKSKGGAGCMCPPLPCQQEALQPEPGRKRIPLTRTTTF
Chain of Opsin-5 (Homo sapiens) (Q6U736 whole entry): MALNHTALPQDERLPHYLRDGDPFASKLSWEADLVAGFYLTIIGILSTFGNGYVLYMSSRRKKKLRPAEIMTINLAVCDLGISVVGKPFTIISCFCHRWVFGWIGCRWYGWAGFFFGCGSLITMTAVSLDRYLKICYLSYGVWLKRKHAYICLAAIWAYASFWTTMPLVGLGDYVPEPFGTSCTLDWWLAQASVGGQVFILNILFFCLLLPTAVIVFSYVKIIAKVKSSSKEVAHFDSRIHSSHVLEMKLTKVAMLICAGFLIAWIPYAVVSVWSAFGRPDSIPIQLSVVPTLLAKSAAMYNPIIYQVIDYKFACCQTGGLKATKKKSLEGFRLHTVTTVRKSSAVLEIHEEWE
Chain of Neuropeptide FF receptor 1 (Homo sapiens) (Q9GZQ6 whole entry): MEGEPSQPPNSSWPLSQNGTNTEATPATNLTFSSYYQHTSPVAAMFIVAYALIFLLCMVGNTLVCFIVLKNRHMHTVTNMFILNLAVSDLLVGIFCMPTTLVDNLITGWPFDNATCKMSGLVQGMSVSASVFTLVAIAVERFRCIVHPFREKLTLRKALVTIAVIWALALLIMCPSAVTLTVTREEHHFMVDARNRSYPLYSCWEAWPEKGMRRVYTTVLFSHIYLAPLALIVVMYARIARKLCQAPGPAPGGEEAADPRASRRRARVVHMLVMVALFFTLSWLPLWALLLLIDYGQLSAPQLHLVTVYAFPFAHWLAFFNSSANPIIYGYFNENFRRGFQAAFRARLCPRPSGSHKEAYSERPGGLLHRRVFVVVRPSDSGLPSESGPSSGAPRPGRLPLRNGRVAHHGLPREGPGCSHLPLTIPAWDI
Chain of G-protein coupled receptor 37-like 1 (Homo sapiens) (O60883 whole entry): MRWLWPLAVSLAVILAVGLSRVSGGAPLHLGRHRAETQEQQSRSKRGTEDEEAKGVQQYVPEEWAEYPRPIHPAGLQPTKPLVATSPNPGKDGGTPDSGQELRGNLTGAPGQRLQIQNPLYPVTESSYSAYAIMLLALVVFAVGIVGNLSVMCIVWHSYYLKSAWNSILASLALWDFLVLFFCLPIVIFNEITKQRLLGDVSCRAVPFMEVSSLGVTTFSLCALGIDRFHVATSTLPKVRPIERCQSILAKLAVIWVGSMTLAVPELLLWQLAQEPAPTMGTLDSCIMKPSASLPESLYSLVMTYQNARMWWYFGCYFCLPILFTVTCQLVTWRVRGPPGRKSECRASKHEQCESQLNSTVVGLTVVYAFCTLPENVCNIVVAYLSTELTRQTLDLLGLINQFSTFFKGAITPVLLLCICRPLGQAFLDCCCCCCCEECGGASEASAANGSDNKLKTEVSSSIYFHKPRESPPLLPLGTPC
Chain of Melanocortin receptor 3 (Homo sapiens) (P41968 whole entry): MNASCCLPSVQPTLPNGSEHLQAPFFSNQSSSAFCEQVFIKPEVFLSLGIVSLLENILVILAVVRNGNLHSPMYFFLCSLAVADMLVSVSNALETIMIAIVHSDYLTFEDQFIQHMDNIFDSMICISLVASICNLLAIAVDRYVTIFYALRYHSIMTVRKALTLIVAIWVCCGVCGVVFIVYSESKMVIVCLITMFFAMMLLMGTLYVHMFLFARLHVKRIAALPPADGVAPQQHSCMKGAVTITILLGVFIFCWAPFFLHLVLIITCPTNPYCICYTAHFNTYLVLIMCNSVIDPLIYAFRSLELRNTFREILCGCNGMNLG

RLU [1]: 602000
RLU [2]: -2870
RLU [3]: 8750
RLU [4]: 1160
RLU [5]: -668
RLU [6]: 319
RLU [7]: 120
RLU [8]: 4030
RLU [9]: 2860
RLU [10]: 7390
RLU [11]: 2600
RLU [12]: 1900
RLU [13]: 153000
RLU [14]: -153
RLU [15]: -1530
RLU [16]: 86500
RLU [17]: 18.8
RLU [18]: 3790
RLU [19]: -1130
RLU [20]: 2870
RLU (Opsin-5 (Homo sapiens)): 4000
RLU [21]: -5810
RLU [22]: -6500
RLU [23]: -2080
RLU [24]: -638
RLU [25]: 6260
RLU [26]: -483
RLU [27]: 2100
RLU [28]: -3250
RLU [29]: 10100
RLU [30]: -838
RLU [31]: -865
RLU [32]: 1710
RLU [33]: -1890
RLU [34]: -194
SMILES: CCCCC(=O)N1CC2(C1)CN(c1ccccc1-c1nnn[nH]1)C2
